Reference: the supplement of paper PMC10307832

Experiments:
Assay in all cases: relative viability (nuclei count vs DMSO), 5 days (fraction); higher = more cells survive
[1] = compound: Nc1nc2[nH]cc(CCc3ccc(C(=O)N[C@@H](CCC(=O)O)C(=O)O)cc3)c2c(=O)[nH]1 [Pemetrexed] + O=C(c1cc(Cc2n[nH]c(=O)c3ccccc23)ccc1F)N1CCN(C(=O)C2CC2)CC1 [Olaparib] (partner 8 µM)
In short: (§1)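 Each reported value is a median over duplicate plates. It expresses relative viability: treated-well nuclei count divided by vehicle-well nuclei count. Lung cancer cell lines in 1536-well plates were dosed by pin tool a day after seeding, alone with one drug or with a fixed anchor-drug dose plus five library-drug doses (not always all listed) in √10 steps, and nuclei were counted after 5 days.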

[2] = compound: Nc1nc2[nH]cc(CCc3ccc(C(=O)N[C@@H](CCC(=O)O)C(=O)O)cc3)c2c(=O)[nH]1 [Pemetrexed] + CC1(C)CCC(c2ccc(Cl)cc2)=C(CN2CCN(c3ccc(C(=O)NS(=O)(=O)c4ccc(N[C@H](CCN5CCOCC5)CSc5ccccc5)c(S(=O)(=O)C(F)(F)F)c4)cc3)CC2)C1 [Navitoclax] (partner 0.5 µM)
In short: as §1

[3] = compound: Nc1nc2[nH]cc(CCc3ccc(C(=O)N[C@@H](CCC(=O)O)C(=O)O)cc3)c2c(=O)[nH]1 [Pemetrexed] + Nc1ncn([C@H]2C[C@H](O)[C@@H](CO)O2)c(=O)n1 [Decitabine] (partner 2 µM)
In short: as §1

[4] = compound: CC[C@H](Nc1ncnc2[nH]cnc12)c1nc2cccc(F)c2c(=O)n1-c1ccccc1 [Idelalisib] + Cc1nc(Nc2ncc(C(=O)Nc3c(C)cccc3Cl)s2)cc(N2CCN(CCO)CC2)n1 [Dasatinib] (partner 0.075 µM)
In short: as §1

Cell Line	relative viability ([1]; first compound 0.002 µM)	relative viability ([1]; first compound 0.006325 µM)	relative viability ([1]; first compound 0.02 µM)	relative viability ([1]; first compound 0.06325 µM)	relative viability ([1]; first compound 0.2 µM)	relative viability ([2]; first compound 0.002 µM)	relative viability ([2]; first compound 0.006325 µM)	relative viability ([2]; first compound 0.02 µM)	relative viability ([2]; first compound 0.06325 µM)	relative viability ([2]; first compound 0.2 µM)	relative viability ([3]; first compound 0.002 µM)	relative viability ([3]; first compound 0.006325 µM)	relative viability ([3]; first compound 0.02 µM)	relative viability ([3]; first compound 0.06325 µM)	relative viability ([3]; first compound 0.2 µM)	relative viability ([4]; first compound 0.04 µM)	relative viability ([4]; first compound 0.1265 µM)	relative viability ([4]; first compound 0.4 µM)	relative viability ([4]; first compound 1.265 µM)	relative viability ([4]; first compound 4 µM)
NCI-H1650	0.676	0.93	0.887	0.758	0.345	1.08	1.11	1.37	1.15	0.632	0.426	0.32	0.545	0.249	0.317	0.322	0.321	0.24	0.315	0.23
NCI-H1651	0.175	0.191	0.205	0.193	0.184	0.906	0.977	1.01	0.938	0.968	0.525	0.593	0.631	0.404	0.653	0.305	0.314	0.318	0.518	0.332
NCI-H1666	0.765	0.785	0.787	0.728	0.694	0.877	0.717	0.915	0.711	0.419	0.637	0.724	0.712	0.594	0.612	0.79	0.863	0.676	0.79	0.773
NCI-H1734	0.576	0.615	0.741	0.619	0.601	0.826	0.817	0.933	0.813	0.656	0.485	0.472	0.52	0.517	0.427	0.468	0.487	0.338	0.454	0.374
NCI-H1755	0.777	0.857	0.875	0.89	0.781	0.94	0.918	1.03	0.992	0.898	0.708	0.738	0.734	0.693	0.695	0.399	0.456	0.312	0.366	0.338
NCI-H1792	0.44	0.405	0.397	0.497	0.46	0.59	0.823	0.579	0.564	0.585	0.506	0.532	0.527	0.507	0.56	0.469	0.92	0.68	0.794	0.569
NCI-H1793	0.868	0.712	0.912	0.919	0.774	0.616	0.41	0.55	0.421	0.416	0.512	0.449	0.583	0.512	0.528	0.379	0.372	0.294	0.374	0.323
NCI-H1915	0.243	0.277	0.274	0.238	0.274	0.773	0.757	0.772	0.764	0.783	0.263	0.258	0.243	0.25	0.26	0.425	0.316	0.284	0.357	0.3
NCI-H1944	0.317	0.368	0.395	0.393	0.402	0.945	1.01	1.03	1.08	1.01	0.378	0.37	0.405	0.427	0.458	0.241	0.205	0.169	0.196	0.202
NCI-H1975	0.645	0.748	0.765	0.677	0.323		1.19	1.1	1.1	0.731	0.322	0.403	0.378	0.291	0.223	0.363	0.436	0.263	0.402	0.293
NCI-H1993	0.885	1.02	1.21	1.06	0.798	0.808	0.832	0.859	0.917	0.804	0.619	0.661	0.622	0.576	0.461	0.785	0.562	0.51	0.51	0.522
NCI-H2009	0.648	0.689	0.714	0.651	0.661	1.15	1.11	1.18	1.12	1.04	0.372	0.307	0.416	0.355	0.342	0.335	0.302	0.266	0.252	0.197
NCI-H2023	0.431	0.463	0.456	0.36	0.158	0.972	1.02	0.991	0.942	0.459	0.181	0.206	0.246	0.173	0.125	0.625	0.549	0.438	0.487	0.375
NCI-H2085	0.755	0.74	0.802	0.806	0.789	1.05	1.18	1.07	1.12	1.15	0.584	0.513	0.53	0.527	0.642	0.244	0.19	0.188	0.246	0.19
NCI-H2087	0.595	0.585	0.626	0.534	0.539	0.946	0.951	0.951	0.749	0.746	0.268	0.237	0.332	0.238	0.262	0.966	0.906	0.696	1.03	0.514
NCI-H2126	0.861	0.965	0.886	0.889	0.777	0.828	0.827	0.882	0.833	0.82	0.55	0.588	0.569	0.608	0.567	0.548	0.664	0.522	0.62	0.557
NCI-H2170	0.573	0.62	0.652	0.633	0.555	0.538	0.587	0.663	0.662	0.5	0.436	0.48	0.458	0.462	0.459	0.661	0.473	0.536	0.383	0.554
NCI-H2347	0.55	0.527	0.678	0.517	0.499	0.659	0.805	0.776	0.619	0.391	0.604	0.594	0.657	0.619	0.49	0.416	0.346	0.25	0.292	0.325
NCI-H2405	0.793	0.821	0.885	0.846	0.862	1.13	0.882	0.907	0.778	0.776	0.717	0.649	0.691	0.687	0.685	0.25	0.201	0.199	0.245	0.217
NCI-H3122	0.592	0.636	0.678	0.567	0.513	0.981	1.06	1.03	1.01	0.826	0.452	0.379	0.413	0.417	0.305	0.646	0.55	0.552	0.817	0.467
PC-3 [JPC-3]	1.03	1.18	1.19	1.14	1.08	0.726	0.762	0.796	0.89	0.749	0.765	0.845	0.956	0.837	0.857	0.814	0.973	0.908	0.879	0.892
PC-14	0.272	0.151	0.274	0.127	0.0867	0.976	0.976	1.05	0.428	0.129	0.211	0.217	0.301	0.0896	0.0739	0.273	0.266	0.248	0.0361	0.223
RERF-LC-KJ	0.956	0.843	0.973	0.865	0.612	0.952	0.722	1.31	1.13	0.741	0.609	0.753	0.801	0.721	0.415	0.808	0.829	0.726	0.687	0.668
SK-LU-1	0.405	0.5	0.58	0.51	0.455	0.881	0.813	0.791	0.901	0.817	0.617	0.659	0.699	0.642	0.603	0.165	0.163	0.153	0.153	0.186
SK-MES-1	0.603	0.708	0.821	0.649	0.627	1.24	1.1	1.27	1.26	1.2	0.369	0.331	0.408	0.421	0.367	0.33	0.306	0.208	0.199	0.187
SW 1573	0.477	0.45	0.472	0.423	0.43	1.11	0.927	0.987	0.889	0.902	0.577	0.662	0.615	0.53	0.525	0.508	0.475	0.503	0.324	0.376
